In ChEMBL document CHEMBL5143662, “Discovery of EP300/CBP histone acetyltransferase inhibitors through scaffold hopping of 1,4-oxazepane ring” (Bioorg Med Chem Lett, 2022):
pIC50: −log10 of the molar value. ≈ marks a conversion by molar mass, not a printed value.

Columns and labels:
[1] = target: T1, Histone acetyltransferase p300 (Homo sapiens, UniProt Q09472); assay: Inhibition of EP300 in human LK2 cells assessed as reduction in intracellular histone H3 acetylation at lysine 27 residue incubated for 3 hrs by chemiluminescence based ELISA; type: cell-based
T1 sequence (Q09472 whole entry, the tested form may be a part): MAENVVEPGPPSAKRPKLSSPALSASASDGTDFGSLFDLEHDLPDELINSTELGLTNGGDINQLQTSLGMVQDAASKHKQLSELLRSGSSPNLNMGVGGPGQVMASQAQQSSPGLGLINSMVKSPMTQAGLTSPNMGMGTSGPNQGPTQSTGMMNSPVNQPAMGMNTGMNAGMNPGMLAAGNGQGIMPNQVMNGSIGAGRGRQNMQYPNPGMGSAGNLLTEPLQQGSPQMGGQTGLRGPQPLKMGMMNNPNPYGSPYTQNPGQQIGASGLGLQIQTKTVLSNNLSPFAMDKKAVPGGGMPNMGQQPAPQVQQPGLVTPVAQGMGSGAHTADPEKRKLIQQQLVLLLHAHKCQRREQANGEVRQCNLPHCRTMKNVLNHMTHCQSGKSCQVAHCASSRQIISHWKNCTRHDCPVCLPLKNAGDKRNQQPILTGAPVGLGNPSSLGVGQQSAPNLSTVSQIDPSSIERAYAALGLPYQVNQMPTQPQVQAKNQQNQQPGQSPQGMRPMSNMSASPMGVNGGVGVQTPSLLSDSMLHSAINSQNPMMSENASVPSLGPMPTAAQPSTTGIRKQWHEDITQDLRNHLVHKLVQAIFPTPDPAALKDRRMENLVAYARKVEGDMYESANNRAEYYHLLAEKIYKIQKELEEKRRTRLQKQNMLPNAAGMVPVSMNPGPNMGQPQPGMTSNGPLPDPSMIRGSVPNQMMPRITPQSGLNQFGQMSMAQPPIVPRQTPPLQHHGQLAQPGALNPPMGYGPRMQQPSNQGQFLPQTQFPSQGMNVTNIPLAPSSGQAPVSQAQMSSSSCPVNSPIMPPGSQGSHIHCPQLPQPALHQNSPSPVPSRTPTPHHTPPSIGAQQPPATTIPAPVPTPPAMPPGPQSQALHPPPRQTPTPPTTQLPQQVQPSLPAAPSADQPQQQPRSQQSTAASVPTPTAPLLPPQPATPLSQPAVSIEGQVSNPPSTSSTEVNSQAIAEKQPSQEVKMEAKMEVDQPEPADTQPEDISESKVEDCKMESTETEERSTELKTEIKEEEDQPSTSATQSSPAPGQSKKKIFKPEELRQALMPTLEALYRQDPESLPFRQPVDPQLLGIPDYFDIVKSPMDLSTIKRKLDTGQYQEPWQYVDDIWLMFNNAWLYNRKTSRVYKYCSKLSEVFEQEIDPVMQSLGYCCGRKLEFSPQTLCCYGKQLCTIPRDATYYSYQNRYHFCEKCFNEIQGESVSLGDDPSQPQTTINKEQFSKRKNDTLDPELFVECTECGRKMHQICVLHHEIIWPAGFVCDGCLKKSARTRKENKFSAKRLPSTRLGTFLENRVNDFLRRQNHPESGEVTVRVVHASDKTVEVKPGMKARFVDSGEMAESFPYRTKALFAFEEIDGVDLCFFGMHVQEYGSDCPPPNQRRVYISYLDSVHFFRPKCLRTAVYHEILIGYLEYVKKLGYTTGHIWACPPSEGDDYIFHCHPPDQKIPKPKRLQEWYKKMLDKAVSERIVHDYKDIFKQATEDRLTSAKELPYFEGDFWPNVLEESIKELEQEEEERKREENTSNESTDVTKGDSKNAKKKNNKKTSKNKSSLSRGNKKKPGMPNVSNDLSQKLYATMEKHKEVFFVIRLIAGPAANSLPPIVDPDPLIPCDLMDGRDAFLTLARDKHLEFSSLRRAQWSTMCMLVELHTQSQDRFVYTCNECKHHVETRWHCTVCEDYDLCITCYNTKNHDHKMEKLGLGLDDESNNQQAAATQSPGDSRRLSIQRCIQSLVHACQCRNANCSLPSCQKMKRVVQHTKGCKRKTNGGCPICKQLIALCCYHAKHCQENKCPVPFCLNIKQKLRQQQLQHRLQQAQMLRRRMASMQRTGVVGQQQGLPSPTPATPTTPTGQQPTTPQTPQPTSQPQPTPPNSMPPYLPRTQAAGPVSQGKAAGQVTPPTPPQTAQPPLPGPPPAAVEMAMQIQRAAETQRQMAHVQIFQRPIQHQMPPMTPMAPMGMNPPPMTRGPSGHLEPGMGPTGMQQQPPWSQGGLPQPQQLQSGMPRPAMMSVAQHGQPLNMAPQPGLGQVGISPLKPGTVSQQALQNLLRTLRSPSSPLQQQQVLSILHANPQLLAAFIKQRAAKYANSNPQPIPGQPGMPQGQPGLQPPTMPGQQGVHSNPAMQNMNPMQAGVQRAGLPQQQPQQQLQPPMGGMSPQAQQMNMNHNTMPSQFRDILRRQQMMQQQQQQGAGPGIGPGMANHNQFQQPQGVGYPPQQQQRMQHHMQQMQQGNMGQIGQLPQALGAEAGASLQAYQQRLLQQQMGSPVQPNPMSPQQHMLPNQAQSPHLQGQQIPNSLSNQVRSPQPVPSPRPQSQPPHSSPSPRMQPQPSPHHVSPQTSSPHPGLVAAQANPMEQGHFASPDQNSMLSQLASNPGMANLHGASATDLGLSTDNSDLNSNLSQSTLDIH

[2] = target: T1, Histone acetyltransferase p300; assay: Inhibition of N-terminal His tagged human EP300 (1159-1666 residues) expressed in Escherichia coli BL21 (DE3) using biotinylated H4 (1 to 25)-GSGSK peptide as substrate incubated for 1 hr by AlphaLISA assay
[3] = target: Histone acetyltransferase KAT7 (Homo sapiens, UniProt O95251); assay: Inhibition of MYST2 (unknown origin) using biotinylated H4 (1 to […])-GSGSK peptide as substrate incubated for 1 hr by AlphaLISA assay
[4] = target: Histone acetyltransferase KAT2A (Homo sapiens, UniProt Q92830); assay: Inhibition of GST tagged human GCN5 (323 to end residues) expressed in Sf9 cells using biotinylated H3 (1 to 21)-GGK peptide as substrate incubated for 1 hr by AlphaLISA assay
CREB-binding protein [5] = target: T2, CREB-binding protein (Homo sapiens, UniProt Q92793); assay: Inhibition of CBP (unknown origin) using biotinylated H4 (1 to […])-GSGSK peptide as substrate incubated for 1 hr by AlphaLISA assay
Target sequence in this assay (Q92793 whole entry): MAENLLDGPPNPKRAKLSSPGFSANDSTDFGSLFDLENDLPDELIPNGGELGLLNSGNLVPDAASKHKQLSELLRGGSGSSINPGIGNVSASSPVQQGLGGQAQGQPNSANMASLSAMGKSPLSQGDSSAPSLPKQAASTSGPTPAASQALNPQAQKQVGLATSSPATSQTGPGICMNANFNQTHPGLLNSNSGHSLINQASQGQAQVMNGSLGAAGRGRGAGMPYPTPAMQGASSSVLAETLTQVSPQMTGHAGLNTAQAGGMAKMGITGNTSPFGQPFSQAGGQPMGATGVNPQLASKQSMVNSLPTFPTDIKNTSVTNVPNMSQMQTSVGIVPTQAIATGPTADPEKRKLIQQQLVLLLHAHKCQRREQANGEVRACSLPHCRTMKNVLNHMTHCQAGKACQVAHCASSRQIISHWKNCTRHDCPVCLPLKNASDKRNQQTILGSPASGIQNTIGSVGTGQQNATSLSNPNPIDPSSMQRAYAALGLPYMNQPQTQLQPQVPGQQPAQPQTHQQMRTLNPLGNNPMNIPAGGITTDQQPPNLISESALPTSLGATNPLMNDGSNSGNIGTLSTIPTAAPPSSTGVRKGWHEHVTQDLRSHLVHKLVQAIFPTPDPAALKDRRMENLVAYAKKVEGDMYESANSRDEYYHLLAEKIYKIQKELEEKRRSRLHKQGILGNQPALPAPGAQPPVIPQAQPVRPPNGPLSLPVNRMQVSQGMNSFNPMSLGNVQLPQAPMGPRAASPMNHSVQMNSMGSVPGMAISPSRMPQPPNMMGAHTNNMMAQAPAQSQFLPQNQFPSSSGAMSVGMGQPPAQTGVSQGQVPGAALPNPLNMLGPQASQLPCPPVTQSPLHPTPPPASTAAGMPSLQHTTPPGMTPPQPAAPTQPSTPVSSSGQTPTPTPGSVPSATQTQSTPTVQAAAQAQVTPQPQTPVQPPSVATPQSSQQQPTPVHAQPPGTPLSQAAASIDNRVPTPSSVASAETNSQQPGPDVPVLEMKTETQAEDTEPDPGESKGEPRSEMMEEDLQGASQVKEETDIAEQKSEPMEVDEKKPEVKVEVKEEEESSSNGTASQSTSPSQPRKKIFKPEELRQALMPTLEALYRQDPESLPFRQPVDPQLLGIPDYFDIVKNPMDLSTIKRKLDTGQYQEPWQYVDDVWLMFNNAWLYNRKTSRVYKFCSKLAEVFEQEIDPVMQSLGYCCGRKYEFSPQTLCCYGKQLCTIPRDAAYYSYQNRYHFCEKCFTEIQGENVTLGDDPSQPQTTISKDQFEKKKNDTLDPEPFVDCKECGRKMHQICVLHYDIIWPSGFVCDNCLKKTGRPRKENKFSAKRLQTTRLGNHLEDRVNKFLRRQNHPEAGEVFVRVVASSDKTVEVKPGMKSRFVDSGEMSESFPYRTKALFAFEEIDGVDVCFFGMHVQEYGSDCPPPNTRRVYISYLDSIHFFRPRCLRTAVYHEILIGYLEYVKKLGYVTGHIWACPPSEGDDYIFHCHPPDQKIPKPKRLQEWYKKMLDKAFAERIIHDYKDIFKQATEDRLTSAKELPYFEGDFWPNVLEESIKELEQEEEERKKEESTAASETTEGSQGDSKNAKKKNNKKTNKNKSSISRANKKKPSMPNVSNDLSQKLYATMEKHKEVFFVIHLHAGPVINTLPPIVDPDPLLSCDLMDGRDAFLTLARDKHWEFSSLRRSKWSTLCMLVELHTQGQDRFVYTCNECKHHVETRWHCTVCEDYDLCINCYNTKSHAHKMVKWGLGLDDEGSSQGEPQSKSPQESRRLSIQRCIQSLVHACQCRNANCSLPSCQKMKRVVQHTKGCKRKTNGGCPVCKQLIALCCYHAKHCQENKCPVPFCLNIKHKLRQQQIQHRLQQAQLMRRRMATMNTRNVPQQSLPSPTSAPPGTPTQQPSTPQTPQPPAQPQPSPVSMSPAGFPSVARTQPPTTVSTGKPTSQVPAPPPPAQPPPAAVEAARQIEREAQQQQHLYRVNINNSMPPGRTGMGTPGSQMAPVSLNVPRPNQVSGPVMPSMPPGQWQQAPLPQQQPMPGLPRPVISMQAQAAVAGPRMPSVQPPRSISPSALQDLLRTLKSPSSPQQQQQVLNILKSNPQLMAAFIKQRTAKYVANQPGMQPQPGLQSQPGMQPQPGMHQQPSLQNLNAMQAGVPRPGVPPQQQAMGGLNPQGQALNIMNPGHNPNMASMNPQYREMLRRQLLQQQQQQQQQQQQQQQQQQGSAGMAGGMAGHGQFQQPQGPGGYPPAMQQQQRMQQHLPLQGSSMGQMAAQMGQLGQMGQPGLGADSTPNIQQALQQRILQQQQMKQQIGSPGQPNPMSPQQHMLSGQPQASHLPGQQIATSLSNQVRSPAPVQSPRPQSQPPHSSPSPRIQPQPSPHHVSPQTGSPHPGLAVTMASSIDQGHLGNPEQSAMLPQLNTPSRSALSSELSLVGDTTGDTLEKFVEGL

[6] = target: Histone acetyltransferase KAT2B (Homo sapiens, UniProt Q92831); assay: Inhibition of GST tagged human PCAF (431 to end residues) expressed in Sf9 cells using biotinylated H3 (1 to 21)-GGK peptide as substrate incubated for 1 hr by AlphaLISA assay
[7] = target: Histone acetyltransferase KAT6B (Homo sapiens, UniProt Q8WYB5); assay: Inhibition of MYST4 (unknown origin) using biotinylated H4 (1 to […])-GSGSK peptide as substrate incubated for 1 hr by AlphaLISA assay
CREB-binding protein [8] = target: T2, CREB-binding protein; assay: Inhibition of CBP (unknown origin) at 50 uM using biotinylated H4 (1 to 25)-GSGSK peptide as substrate incubated for 1 hr by AlphaLISA assay relative to control
[9] = target: Histone acetyltransferase KAT5 (Homo sapiens, UniProt Q92993); assay: Inhibition of GST tagged human TIP60 expressed in Sf9 cells using biotinylated H4 (1 to 25)-GSGSK peptide as substrate incubated for 1 hr by AlphaLISA assay
[10] = Metabolic stability in mouse liver microsomes assessed as parent compound remaining measured after 0.5 hr; type: ADME, Microsome; details: read-out: Stability
[11] = Permeability of compound at pH 5.0 by PAMPA assay; type: ADME; details: read-out: permeability
[12] = Permeability of compound at pH 7.4 by PAMPA assay; type: ADME; details: read-out: permeability
[13] = Protein binding in mouse plasma assessed as unbound fraction; type: ADME, cell-free
[14] = Inhibition of SOX2 mRNA expression in human LK2 cells incubated for 6 hrs by RT-qPCR analysis; type: functional, cell-based; details: LK-2, 6 h
[15] = Lipophilicity, logD of compound; type: physicochemical; details: octanol/water
LK-2 [16] = assay: Antitumor activity against human LK2 cells xenografted in BALB/c nude mouse assessed as suppression of SOX2 mRNA level in tumor at 50 to 200 mg/kg, po and measured after 6 hrs by qRT-PCR analysis relative to GADPH; type: functional, organism-based; details: dose 50-200 mg/kg, DDE = dose-dependent effect
[17] = Solubility of the compound at pH 1.2; type: physicochemical; details: buffer
LK-2 [18] = assay: Antitumor activity against human LK2 cells xenografted in BALB/c nude mouse assessed as suppression of SOX2 mRNA level in […] at 50 to 200 mg/kg, po and measured after 6 hrs by qRT-PCR analysis relative to GADPH; type: functional, organism-based; details: dose 50-200 mg/kg, DDE = dose-dependent effect
[19] = Solubility of the compound at pH 6.8; type: physicochemical; details: buffer

SMILES	pIC50 [1]	pIC50 [2]	remaining at 0.5 h [10] [%]	also measured
COc1ccc(C2(C(=O)N3CCOCC(Cc4cccc5[nH]ncc45)C3)CCCCC2)cc1 (stereo not given)	6.21	6.85		
COc1ccc(C2(C(=O)N3CCOCC(Cc4cccc5[nH]ncc45)C3)CCCC2)cc1 (single isomer, unassigned; (-))	< 4.60			
CC1=NN(c2ccc(C(=O)O)cc2)C(=O)/C1=C\c1ccc(-c2cc(C)c(C)cc2[N+](=O)[O-])o1				pIC50 [3]: 5.11; pIC50 [4]: 4.32; pIC50 (CREB-binding protein [5]): < 4.30; pIC50 [6]: 4.41; pIC50 [7]: 4.68; inhibition (CREB-binding protein [8]): 29%; pIC50 [9]: 4.43
COc1ccc(C2(C(=O)N3C[C@H](O)C[C@@H]3C(=O)Nc3cccc4[nH]ncc34)CCCC2)cc1	5.99		47	
COc1ccc(C2(C(=O)N3CCC[C@@H]3C(=O)Nc3cccc4[nH]ncc34)CCCCC2)cc1	6.38	6.77		
COc1ccc(C2(C(=O)N3CCOCC(Cc4cccc5[nH]ncc45)C3)CCOCC2)cc1 (stereo not given)	5.65	6.21		
COc1ccc(C2(C(=O)N3CS(=O)(=O)C[C@@H]3C(=O)Nc3cccc4[nH]ncc34)CCCC2)cc1	6.35	6.82	37	Papp [11]: > 50 ×10⁻⁶ cm/s; Papp [12]: > 50 ×10⁻⁶ cm/s; fraction unbound [13]: 0.952; pIC50 [14]: 6.15; pIC50 (CREB-binding protein [5]): 7.40; logD [15]: 3.2; Activity (LK-2 [16]): Dde; solubility [17]: 63 µg/mL (≈ 131 µM); Activity (LK-2 [18]): Dde; solubility [19]: 50 µg/mL (≈ 104 µM)
COc1ccc(C2(C(=O)N3C[C@H](F)C[C@@H]3C(=O)Nc3cccc4[nH]ncc34)CCCC2)cc1	6.34	7.25	5	
COc1ccc(C2(C(=O)N3C[C@@H](O)C[C@@H]3C(=O)Nc3cccc4[nH]ncc34)CCCC2)cc1	5.84	6.04	57	
COc1ccc(C2(C(=O)N(C)[C@H](C)C(=O)Nc3cccc4[nH]ncc34)CCCC2)cc1	5.30	6.66		
COc1ccc(C2(C(=O)N3CCOCC(Cc4cccc5[nH]ncc45)C3)CCCC2)cc1 (single isomer, unassigned; (+))	6.89	7.30		
COc1ccc(C2(C(=O)N3CCOCC(Cc4cccc5[nH]ncc45)C3)CCCC2)cc1 (stereo in doubt; 3)	6.42	6.89		
COc1ccc(C2(C(=O)N3CCC[C@@H]3C(=O)Nc3cccc4[nH]ncc34)CCCC2)cc1		6.74	10	
COc1ccc(C2(C(=O)N(C)CC(=O)Nc3cccc4[nH]ncc34)CCCCC2)cc1	6.00	6.72		
